Blank lines part the entries; values can stand above or below the compound they belong to.
How the values were obtained:
α-glucosidase = conditions: cited from earlier work
TYR = system: TYR; design: method as in PMID 30458808, PMID 26059994; conditions: cited from earlier work
[1] = DPPH radical scavenging activity; conditions: mean ± SD, n = 3
Experimental: DPPH scavenging activity was measured using the method of Xiong et al., albeit with minor modifications. […] After shaking, the mixture was stored in the dark for 30 min at room temperature, and, finally, the absorbance was measured at 517 nm. Ascorbic acid served as the positive control. The percentage of DPPH scavenging activity was calculated using the following formula: Inhibition(%)=(C-S)/C∗100 where C = the absorbance of the control, and S = the absorbance of the extract.

α-amylase = system: α-amylase; design: method as in PMID 36115306; conditions: cited from earlier work
[2] = TEAC test (ABTS radical scavenging activity); conditions: mean ± SD, n = 3
Experimental: The free radical scavenging activities of extracts were also determined via the TEAC test using ABTS radical following the method reported by Wang et al.. […] Trolox was used as a positive control. The percentage of ABTS free radical scavenging activity was calculated using the following formula: Inhibition(%)=(C−S)/C∗100 Data were expressed in terms of the decrease in ABTS scavenging activity by 50%.

zebrafish embryos = assay: Zebrafish embryo pigmentation (whitening effect); assay type: in vivo, Danio rerio; conditions: 30 µg/mL, 72 hpf, control = 100% pigmentation
Experimental: Adult zebrafish specimens (male and female) were maintained in a temperature-controlled aquarium (28.5 °C) with light-dark cycles and regularly fed with Artemia salina larvae. After natural deposition, the laid eggs were collected and incubated at 28.5 °C. After 24 h, all the eggs were observed under a stereomicroscope (SMZ-171 Series, Motic, Hong Kong, China) to select the fertilized ones. The vitality test and whitening effect were evaluated in vivo on zebrafish embryos according to the following method. […] Control embryos were incubated with embryo water (negative control). After 48 h of incubation at 28 °C (72 hpf), the effects of the treatment were observed using a stereomicroscope (SMZ-171 Series, Motic) equipped with a digital camera (Moticam® 5 plus) for image acquisition. The abnormal phenotypes and mortality of each treated group were documented. […] The images were converted to gray scale, and the pixel measurements analyzer program was used to count the area of the zebrafish image pigmentation. The quantification of pigmentation was expressed as a percentage change compared to the control group, which was considered to be 100%. All experiments were performed in compliance with the European Directive 2010/63/EU and following the ethical guidelines described by the National Institute of Health Guide for the Care and Use of Laboratory Animals.

SMILES: O=c1cc(-c2ccc(O)cc2)oc2c([C@@H]3O[C@H](CO)[C@@H](O)[C@H](O)[C@H]3O)c(O)cc(O)c12 [vitexin, Vitexin]
mechanism of action on α-glucosidase (α-glucosidase): uncompetitive
TYR inhibition (TYR): effective TYR inhibitors

DPPH (IC50 µg/mL) [1]: 16.95 ± 1.20 µg/mL
SMILES: O=C1O[C@H]([C@@H](O)CO)C(O)=C1O [Ascorbic acid]

SMILES: O=c1c(O[C@@H]2O[C@H](CO)[C@H](O)[C@H](O)[C@H]2O)c(-c2ccc(O)c(O)c2)oc2cc(O)cc(O)c12 [hyperoside, Hyperoside]
manner of α-amylase inhibition (α-amylase): competitive
TYR inhibition (TYR): effective TYR inhibitors

TEAC (IC50 µg/mL) [2]: 13.08 ± 0.02 µg/mL
SMILES: Cc1c(C)c2c(c(C)c1O)CCC(C)(C(=O)O)O2 (stereo not shown) [Trolox]

SMILES: NC(=S)Nc1ccccc1 [1-Phenyl-2-thiourea (PTU), 1-Phenyl-2-thiourea]
embryo pigmentation, % vs. control (zebrafish embryos): 36.00%

— PMC10781097, “Chemical Profile and Health-Promoting Activities of Crataegus laciniata (Rosaceae) Flowers” (Plants, 2023)
